Experiment [1] deals with T1, THERMINATOR™ DNA polymerase (Thermococcus sp., UniProt Q56366, A485L/D141A/E143A).
T1 construct: purchased New England Biolabs
As to the kind of experiment: biochemical. Set-up: species or system Thermococcus species 9° N-7. The procedure:
Natural and modified nucleotides were tested for incorporation efficiency using the “polymerase end point assay” (Wu et al., 2007, which is incorporated herein by reference). This assay examines incorporation efficiency on matched and mismatched template bases. Incorporation efficiency is measured by determining the concentration at which the compound incorporates on half the primer-template complexes (IC50). Titrations of increasing compound concentration were performed to generate curves from which the IC50 can be determined.
The sequence of the template DNA is selected depending on which compound will be tested. For example, the first interrogation base after the primer in the template sequence is the complement base of the compound when measuring incorporation efficiency, and one of three mismatched bases when measuring mismatch discrimination properties.
(§1) To the annealed reaction, a DNA polymerase (e.g., THERMINATOR™ DNA polymerase, 0.25 units per reaction, New England Biolabs), 1× Thermopol Buffer, and a known concentration of either natural or modified nucleotide are added to each 10 μL reaction and incubated at 75° C. for 10 minutes, cooled on ice, and quenched with 10 μL of stop solution (98% formamide: 10 mM Na2EDTA, pH=8.0, 25 mg/ml Blue Dextran). Stopped reactions are heated to 75° C. for 30 seconds to denature the DNA, and then placed on ice. The extension products are analyzed on a 10% Long Ranger (Lonza) polyacrylamide gel using an ABI model 377 DNA sequencer. Additional details are provided in Example 1, below.
Polymerase Assays. Natural and modified nucleotides were tested for incorporation efficiency using the “polymerase end point assay” (Wu et al., 2007, which is incorporated herein by reference). This assay examines incorporation efficiency on matched and mismatched template bases. Incorporation efficiency is measured by determining the concentration at which the compound incorporates on half the primer-template complexes (IC50). Titrations of increasing compound concentration were performed to generate curves from which the IC50 can be determined.
The assay is performed by first annealing 5 nM of BODIPY-FL labeled primer with 40 nM template DNA in 1× Thermopol Buffer (20 mM Tris-HCl, pH 8.8; 10 mM (NH4)2SO4; 10 mM KCl; 2 mM MgSO4; 0.1% Triton X-100, New England BioLabs).
The temperature cycle to complete primer annealing is 80° C. for 30 seconds, 57° C. for 30 seconds, then cooling to 4° C. The sequence of the template DNA is selected depending on which compound will be tested. For example, the first interrogation base after the primer in the template sequence is the complement base of the compound when measuring incorporation efficiency, and one of three mismatched bases when measuring mismatch discrimination properties.
as §1, with “sequencer.” for “sequencer. Additional details are provided in Example 1, below.”

The target of experiment [2] is T1, THERMINATOR™ DNA polymerase. As to the kind of experiment: termination assay, weighted sum analysis on homopolymer repeat template. In kind it is biochemical, Thermococcus species 9° N-7. To be noted: 1.0 = complete termination after a single incorporation. The procedure: A weighted sum of 1.0 represents complete termination after a single incorporation, while a value greater than 1.0 indicates incorporation beyond the +1 position (e.g. nucleotide read through). […] The assay is performed as described above for the polymerase end-point assay, except that the template used is a homopolymer repeat, thereby allowing for multiple incorporations of a given nucleotide compound.

[3] abbreviates: Adj IC50 Conc (nM), adjusted IC50 used to set the concentrations of the termination assay.
The mark [4] stands for this setting: IC50 for incorporation, concentration at which the compound incorporates on half the primer-template complexes, complement template base.
The mark [5] stands for this setting: concentration at which the compound incorporates on half the primer-template complexes, complement template base, read-out: IC50 for incorporation.
Where [6] appears, read: adjusted IC50 used to set the concentrations of the termination assay, read-out: Adj IC50 Conc.

Values joined by “and” are separate entries in the source; they are usually repeats but may differ in a detail not shown here. Equal values may be shown once. Read-outs that look alike come from different tables or passages of the source.

T1 sequence (Q56366 whole entry D141A/E143A/A485L): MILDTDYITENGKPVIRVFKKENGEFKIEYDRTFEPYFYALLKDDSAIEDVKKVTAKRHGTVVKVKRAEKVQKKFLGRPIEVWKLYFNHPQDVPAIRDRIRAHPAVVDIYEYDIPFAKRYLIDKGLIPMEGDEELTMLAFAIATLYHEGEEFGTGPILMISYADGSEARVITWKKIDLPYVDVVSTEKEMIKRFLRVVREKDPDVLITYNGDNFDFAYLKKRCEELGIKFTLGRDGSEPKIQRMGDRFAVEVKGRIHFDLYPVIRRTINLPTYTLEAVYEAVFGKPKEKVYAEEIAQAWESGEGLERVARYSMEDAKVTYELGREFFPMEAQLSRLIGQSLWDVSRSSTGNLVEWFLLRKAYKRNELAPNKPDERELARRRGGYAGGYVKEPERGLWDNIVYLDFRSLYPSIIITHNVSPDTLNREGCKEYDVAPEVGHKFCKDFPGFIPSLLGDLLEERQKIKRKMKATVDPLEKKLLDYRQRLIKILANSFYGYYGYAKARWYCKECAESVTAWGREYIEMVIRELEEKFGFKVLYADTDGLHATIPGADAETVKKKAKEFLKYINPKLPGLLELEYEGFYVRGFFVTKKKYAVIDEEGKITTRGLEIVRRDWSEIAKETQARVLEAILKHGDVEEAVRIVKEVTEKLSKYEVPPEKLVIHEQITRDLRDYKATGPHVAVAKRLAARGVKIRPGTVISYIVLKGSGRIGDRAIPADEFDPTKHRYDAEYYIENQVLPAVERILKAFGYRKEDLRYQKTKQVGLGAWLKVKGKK

`Cc1ccccc1COCc1cn([C@H]2C[C@H](O)[C@@H](COP(=O)(O)OP(=O)(O)OP(=O)(O)O)O2)c(=O)[nH]c1=O` [5p147, 5-(2-methylbenzyloxy)methyl-2′-deoxyuridine-5′-triphosphate]: the IC50 in experiment [1] (setting [3]) and in experiment [1] (setting [4]) was 1.4 nM throughout. Moreover, the “Average Weighted Sum ± SD” value in experiment [2] (1x IC50) was determined as 0.51 ± 0.1; in experiment [2] (5x IC50) it was 1.5 ± 0.3; in experiment [2] (25x IC50), 2.6 ± 0.4.
For `CC(C)(C)c1ccccc1COCc1cn([C@H]2C[C@H](O)[C@@H](COP(=O)(O)OP(=O)(O)OP(=O)(O)O)O2)c(=O)[nH]c1=O` [6p024, 5-(2-tert-butylbenzyloxy)methyl-2′-deoxyuridine-5′-triphosphate], the IC50 in experiment [1] (setting [3]) and in experiment [1] (setting [4]) was 0.7 nM in each case. Moreover, the “Average Weighted Sum ± SD” value in experiment [2] (1x IC50) is given as 0.44 ± 0.1; in experiment [2] (5x IC50) it was 1.2 ± 0.1; in experiment [2] (25x IC50) it was 1.9 ± 0.1.
Consider `CC(C)(C)C(OCc1cn([C@H]2C[C@H](O)[C@@H](COP(=O)(O)OP(=O)(O)OP(=O)(O)O)O2)c(=O)[nH]c1=O)c1ccccc1[N+](=O)[O-]` (single isomer, unassigned) [3p075, 5-[(R or S)-1-(2-nitrophenyl)-2,2-dimethyl-1-propyloxy]methyl-2′-deoxyuridine-5′-triphosphate], for which the IC50 in experiment [1] (setting [4]) came out at 3 nM.
Turning to `CC(C)C(OCc1cn([C@H]2C[C@H](O)[C@@H](COP(=O)(O)OP(=O)(O)OP(=O)(O)O)O2)c(=O)[nH]c1=O)c1ccccc1[N+](=O)[O-]` (mixture of isomers) [2p148, 5-(α-isopropyl-2-nitrobenzyloxy)methyl-2′-dUTP], the figures for the IC50 in experiment [1] (setting [3]) and in experiment [1] (setting [5]) were 2.1 nM and 2.3 ± 0.1 nM, respectively. Moreover, the “Average Weighted Sum ± SD” value in experiment [2] (1x IC50) is 0.59 ± 0.02; in experiment [2] (5x IC50), 0.99 ± 0.01; in experiment [2] (25x IC50) it was 1.0 and 1.0 ± 0.01.
On to `O=c1[nH]c(=O)n([C@H]2C[C@H](O)[C@@H](COP(=O)(O)OP(=O)(O)OP(=O)(O)O)O2)cc1COCc1ccccc1` [5p145, 5-(benzyloxy)methyl-2′-deoxyuridine-5′-triphosphate], for which the IC50 in experiment [1] (setting [3]) and in experiment [1] (setting [4]) was 1.4 nM in each case. Also, the “Average Weighted Sum ± SD” value in experiment [2] (1x IC50) was 0.43 ± 0.1; in experiment [2] (5x IC50) it was 1.3 ± 0.3; in experiment [2] (25x IC50), 2.9 and 2.9 ± 0.4.
Compound `CC(C)[C@H](OCc1cn([C@H]2C[C@H](O)[C@@H](COP(=O)(O)OP(=O)(O)OP(=O)(O)O)O2)c(=O)[nH]c1=O)c1ccccc1[N+](=O)[O-]` [3p063, 5-[(S)-1-(2-nitrophenyl)-2-methyl-propyloxy]methyl-2′-deoxyuridine-5′-triphosphate] yielded an IC50 in experiment [1] (setting [4]) of 2 nM.
For the compound `Nc1ccn([C@H]2C[C@H](O)[C@@H](COP(=O)(O)OP(=O)(O)OP(=O)(O)O)O2)c(=O)n1` [dCTP, reference compound], the IC50 in experiment [1] (setting [5]) came to 3 ± 0.6 nM.
In the case of `CC(C)c1ccccc1COCc1cn([C@H]2C[C@H](O)[C@@H](COP(=O)(O)OP(=O)(O)OP(=O)(O)O)O2)c(=O)[nH]c1=O` [5p149, 5-(2-isopropylbenzyloxy)methyl-2′-deoxyuridine-5′-triphosphate], the IC50 in experiment [1] (setting [3]) and in experiment [1] (setting [4]) was 1.4 nM throughout. Besides, the results for the “Average Weighted Sum ± SD” value in experiment [2] (1x IC50), in experiment [2] (5x IC50) and in experiment [2] (25x IC50) were 0.53 ± 0.1, 1.3 ± 0.1 and 2.2 ± 0.2, respectively.
As for `CC(C)[C@H](OCc1cn([C@H]2C[C@H](O)[C@@H](COP(=O)(O)OP(=O)(O)OP(=O)(O)O)O2)c(=O)nc1N)c1ccccc1[N+](=O)[O-]` [3p065, 5-[(S)-1-(2-nitrophenyl)-2-methyl-propyloxy]methyl-2′-deoxycytidine-5′-triphosphate], in experiment [1] (setting [4]), the IC50 stood at 1.1 ± 0.1 nM.
In the case of “5-(α-isopropyl-2-nitrobenzyloxy)methyl-2′-dUTP-6-ROX [6p044]”, the IC50 in experiment [1] (setting [5]) amounted to 18 ± 1 nM.
For `Nc1ncnc2c1c(COCc1ccccc1[N+](=O)[O-])cn2[C@H]1C[C@H](O)[C@@H](COP(=O)(O)OP(=O)(O)OP(=O)(O)O)O1` [5p085, 7-(2-nitrobenzyloxy)methyl-7-deaza-2′-deoxyadenosine-5′-triphosphate], the IC50 in experiment [1] (setting [4]) is 3.6 ± 0.3 nM.
For `Cc1cccc(C)c1COCc1cn([C@H]2C[C@H](O)[C@@H](COP(=O)(O)OP(=O)(O)OP(=O)(O)O)O2)c(=O)[nH]c1=O` [6p015, 5-(2,6-dimethylbenzyloxy)methyl-2′-deoxyuridine-5′-triphosphate], the IC50 in experiment [1] (setting [3]) and in experiment [1] (setting [4]) was 1.4 nM throughout. Moreover, the figures for the “Average Weighted Sum ± SD” value in experiment [2] (1x IC50), in experiment [2] (5x IC50) and in experiment [2] (25x IC50) were 0.56 ± 0.1, 1.5 ± 0.1 and 2.2 ± 0.1, respectively.
In experiment [1] (setting [4]), `CC(C)C(Nc1ncnc2c1ncn2[C@H]1C[C@H](O)[C@@H](COP(=O)(O)OP(=O)(O)OP(=O)(O)O)O1)c1ccccc1[N+](=O)[O-]` (single isomer, unassigned) [6p063, N^6-(α-isopropyl-2-nitrobenzyl)-2′-dATP] had an IC50 of 12 ± 1 nM.
Take `Cc1cn([C@H]2C[C@H](O)[C@@H](COP(=O)(O)OP(=O)(O)OP(=O)(O)O)O2)c(=O)[nH]c1=O` [dTTP, reference compound]: the IC50 in experiment [1] (setting [6]) is 2.1 nM. In addition, the “Average Weighted Sum ± SD” value in experiment [2] (1x IC50) was found to be 0.68; in experiment [2] (5x IC50), 3.0; in experiment [2] (25x IC50) it was 12.2.
`CC(Nc1ncnc2c1ncn2[C@H]1C[C@H](O)[C@@H](COP(=O)(O)OP(=O)(O)OP(=O)(O)O)O1)c1ccccc1[N+](=O)[O-]` (mixture of isomers) [3p006, N^6-(α-methyl-2-nitrobenzyl)-2′-dATP] displayed an IC50 in experiment [1] (setting [4]) of 8.5 ± 1.8 nM.
Consider `CC(OCc1cn([C@H]2C[C@H](O)[C@@H](COP(=O)(O)OP(=O)(O)OP(=O)(O)O)O2)c(=O)[nH]c1=O)c1ccccc1[N+](=O)[O-]` (mixture of isomers) [2p043, 5-(α-methyl-nitrobenzyl-oxymethyl)-2′-dUTP], for which the IC50 in experiment [1] (setting [6]) was determined as 1.7 nM; in experiment [1] (setting [5]) it was 1.7 ± 0.2 nM. The “Average Weighted Sum ± SD” value in experiment [2] (1x IC50) amounted to 0.53 ± 0.06; in experiment [2] (5x IC50), 1.1 ± 0.0; in experiment [2] (25x IC50) it was 1.7±0.1.
Consider `Nc1nc(OCc2ccccc2[N+](=O)[O-])c2ncn([C@H]3C[C@H](O)[C@@H](COP(=O)(O)OP(=O)(O)OP(=O)(O)O)O3)c2n1` [2p108, O^6-(2-nitrobenzyl)-2′-dGTP], for which the IC50 in experiment [1] (setting [4]) worked out at 4 ± 0.7 nM.
Turning to “5-(α-isopropyl-2-nitrobenzyloxy)methyl-2′-dUTP-5-R6G [6p005]”, the IC50 in experiment [1] (setting [5]) stood at 15 ± 1 nM.
As to `CC(Oc1nc(N)nc2c1ncn2[C@H]1C[C@H](O)[C@@H](COP(=O)(O)OP(=O)(O)OP(=O)(O)O)O1)c1ccccc1[N+](=O)[O-]` (mixture of isomers) [2p143, O^6-(α-methyl-2-nitrobenzyl)-2′-dGTP], in experiment [1] (setting [4]), the IC50 came out at 10 nM.
On to “C^7-(α-isopropyl-2-nitrobenzyloxy)methyl-2′-dATP-6-CR110 [5p130-LP2]”, for which the IC50 in experiment [1] (setting [5]) is 15 ± 3 nM.
Consider “5-(α-isopropyl-2-nitrobenzyloxy)methyl-2′-dUTP-6-FAM [6p094]”, for which, in experiment [1] (setting [5]), the IC50 was 8.1 ± 0.2 nM.
For “6-ROX labeled 7-{(R)-1-[4-(3-amino-1-propynyl)-2-nitrophenyl]-2-methyl-propyloxy}methyl-7-deaza-2′-deoxyguanosine-5′-triphosphate [6p034]”, the IC50 in experiment [1] (setting [5]) amounted to 7.4 ± 0.1 nM.

The record behind these values is patent publication US9200319B2, “Nucleotides and nucleosides and methods for their use in DNA sequencing” (Lasergen, Inc., priority 2008, dated 2015).
